A short description of this data set: Accelerated stability study of coated 0.625 mg conjugated estrogens tablets (active compounds and degradation products per USP, LOD). The data set is classed as physicochemical. The settings on record: for Change: initial % found versus 40c.
Source text: (§1) Stability was monitored under different storage conditions.
as §1

Where [1] appears, read: acrylic-coated 0.625 mg tablets, Lot EXPWS 1251, 10% Eudragit/RS:RL (2:1), Initial.
The mark [2] stands for this setting: acrylic-coated tablets, Lot EXPWS 1251, 40c, 75% RH/1m.
Setting [3] is: acrylic-coated tablets, Lot EXPWS 1251, 40c, 75% RH/2m.
Where [4] appears, read: acrylic-coated tablets, Lot EXPWS 1251, 40c, 75% RH/3m.
[5] abbreviates: acrylic-coated tablets, Lot EXPWS 1251, 50c, 75% RH/2 wks.
[6] abbreviates: acrylic-coated tablets, Lot EXPWS 1251, 75% RH/3m.
[7] abbreviates: sugar-coated 0.625 mg tablets, Lot EXPWS 1246, Initial.
[8] abbreviates: sugar-coated tablets, Lot EXPWS 1246, 40c, 75% RH/1 mnth.
Where [9] appears, read: sugar-coated tablets, Lot EXPWS 1246, 40c, 75% RH/2 mnth.
Where [10] appears, read: sugar-coated tablets, Lot EXPWS 1246, 50c, 75% RH/2 wks.

The record followed here is patent publication US7303763B2, “Compositions for conjugated estrogens and associated methods” (Watson Laboratories, Inc., priority 2001, dated 2007).

Turning to `C[C@]12CCc3c(ccc4cc(O)ccc34)C1CCC2O` (stereo partly drawn) [17b-dihydroequilenin], the “% Found” value is recorded as 0.77% under setting [1]; 0.97% under setting [2]; 0.86% under setting [3]; 0.68% under setting [4]; 0.67% under setting [5]; 0.56% under setting [7]. In addition, the “% Found” value amounted to 0.58% under setting [8], 0.44% under setting [9] and 0.63% under setting [10]. Besides, the “% Initial” value reads like this: under setting [2], 126.0%; under setting [3], 111.7%; under setting [4], 88.3%; under setting [5], 87.0%; under setting [8], 103.6%; under setting [9], 78.6%. Besides, the “% Initial” value under setting [10] stood at 112.5%. The Change under setting [6] was 0.09.
With `C[C@]12CC[C@H]3C(=CCc4cc(O)ccc43)[C@@H]1CC[C@H]2O` [17a-dihydroequilin], the “% Found” value runs as follows: under setting [1], 17.9%; under setting [2], 17.9%; under setting [3], 17.6%; under setting [4], 18.1%; under setting [5], 17.4%; under setting [7], 14.0%. Also, the “% Found” value is 14.3% under setting [8], 14.5% under setting [9] and 14.5% under setting [10]. In addition, the “% Initial” value was determined as 100.0% under setting [2]; 98.3% under setting [3]; 101.1% under setting [4]; 97.2% under setting [5]; 102.1% under setting [8]; 103.6% under setting [9]. Further, the “% Initial” value under setting [10] stood at 103.6%. Under setting [6], the Change is recorded as −0.2.
As to `C[C@]12CC[C@H]3C(=CCc4cc(O)ccc43)[C@@H]1CC[C@@H]2O` [17b-dihydroequilin], the “% Found” value amounted to 2.3% under setting [1]; 2.6% under setting [2]; 2.4% under setting [3]; 2.4% under setting [4]; 2.2% under setting [5]; 1.3% under setting [7]. Also, the “% Found” value reads like this: under setting [8], 1.3%; under setting [9], 1.4%; under setting [10], 1.3%. The “% Initial” value turned out to be 108.7% under setting [2]; 104.3% under setting [3]; 104.3% under setting [4]; 95.7% under setting [5]; 100.0% under setting [8]; 107.7% under setting [9]. Moreover, the “% Initial” value under setting [10] is on record as 100.0%. For the same compound, the Change under setting [6] was −0.1.
As to `C[C@]12CCC3=C(CCc4cc(O)ccc43)[C@@H]1CCC2=O` [d8,9 dehydroesterone], the “% Found” value under setting [1] was 4.15%; the “% Found” value under setting [2] was 4.13%; the “% Found” value under setting [3] is reported as 4.02%; the “% Found” value under setting [4] worked out at 3.91%; the “% Found” value under setting [5] was found to be 4.07%; the “% Found” value under setting [7] is given as 4.72%. The “% Found” value runs as follows: under setting [8], 4.68%; under setting [9], 4.53%; under setting [10], 4.91%. Also, the “% Initial” value is, setting by setting: under setting [2], 99.5%; under setting [3], 96.9%; under setting [4], 94.2%; under setting [5], 98.1%; under setting [8], 99.2%; under setting [9], 96.0%. Moreover, the “% Initial” value under setting [10] turned out to be 104.0%. For the same compound, the Change under setting [6] was 0.24.
In the case of `C[C@]12CCc3c(ccc4cc(O)ccc34)[C@@H]1CCC2=O` [Equilenin], the “% Found” value was 2.2% under setting [1]; 2.3% under setting [2]; 2.6% under setting [3]; 3.0% under setting [4]; 2.5% under setting [5]; 2.6% under setting [7]. Also, the “% Found” value was 2.8% under setting [8], 2.8% under setting [9] and 2.8% under setting [10]. Further, the “% Initial” value reads like this: under setting [2], 104.5%; under setting [3], 118.2%; under setting [4], 136.4%; under setting [5], 113.6%; under setting [8], 107.7%; under setting [9], 107.7%. Besides, the “% Initial” value under setting [10] was determined as 107.7%. The compound also displayed a Change under setting [6] of −0.8.
Take `C[C@]12CC[C@H]3C(=CCc4cc(O)ccc43)[C@@H]1CCC2=O` [Equilin]: the “% Found” value under setting [1] stood at 27.3%; the “% Found” value under setting [2] turned out to be 27.1%; the “% Found” value under setting [3] is 26.5%; the “% Found” value under setting [4] was determined as 26.4%; the “% Found” value under setting [5] was 26.5%; the “% Found” value under setting [7] is on record as 22.7%. Also, the “% Found” value by setting is: under setting [8], 23.0%; under setting [9], 23%; under setting [10], 23.3%. Besides, the “% Initial” value is 99.3% under setting [2]; 97.1% under setting [3]; 96.7% under setting [4]; 97.1% under setting [5]; 101.3% under setting [8]; 101.3% under setting [9]. For the same compound, the “% Initial” value under setting [10] is listed as 102.6%. For the same compound, the Change under setting [6] is 0.9.
For the compound `C[C@]12CCc3c(ccc4cc(O)ccc34)[C@@H]1CC[C@H]2O` [17a-dihydroequilenin], the “% Found” value under setting [1] turned out to be 1.65%; the “% Found” value under setting [2] came out at 2.03%; the “% Found” value under setting [3] came to 2.34%; the “% Found” value under setting [4] was determined as 2.82%; the “% Found” value under setting [5] was 1.79%; the “% Found” value under setting [7] came to 2.05%. The “% Found” value by setting is: under setting [8], 2.16%; under setting [9], 2.2%; under setting [10], 2.19%. In addition, the “% Initial” value is, setting by setting: under setting [2], 123.0%; under setting [3], 141.8%; under setting [4], 170.9%; under setting [5], 108.5%; under setting [8], 105.4%; under setting [9], 107.3%. Also, the “% Initial” value under setting [10] is 106.8%. In addition, the Change under setting [6] was −1.17.
For the compound `C[C@]12CC[C@@H]3c4ccc(O)cc4CC[C@H]3[C@@H]1CC[C@H]2O` [17a-estradiol], the “% Found” value under setting [1] stood at 4.6%; the “% Found” value under setting [2] was determined as 4.7%; the “% Found” value under setting [3] worked out at 4.7%; the “% Found” value under setting [4] was 4.8%; the “% Found” value under setting [5] is reported as 4.5%; the “% Found” value under setting [7] turned out to be 3.8%. The “% Found” value worked out at 3.9% under setting [8], 3.9% under setting [9] and 3.8% under setting [10]. For the same compound, the “% Initial” value under setting [2] is reported as 102.2%; the “% Initial” value under setting [3] was determined as 102.2%; the “% Initial” value under setting [4] came to 104.3%; the “% Initial” value under setting [5] worked out at 97.8%; the “% Initial” value under setting [8] is listed as 102.6%; the “% Initial” value under setting [9] was 102.6%. The “% Initial” value under setting [10] came out at 100.0%. Further, the Change under setting [6] was −0.2.
For `C[C@]12CC[C@@H]3c4ccc(O)cc4CC[C@H]3[C@@H]1CC[C@@H]2O` [17b-estradiol], the “% Found” value under setting [1] came out at 1.26%; the “% Found” value under setting [2] is 0.90%; the “% Found” value under setting [3] is given as 0.96%; the “% Found” value under setting [4] was found to be 0.88%; the “% Found” value under setting [5] was 1.11%; the “% Found” value under setting [7] came to 0.60%. Besides, the “% Found” value under setting [8] is on record as 0.56%, the “% Found” value under setting [9] turned out to be 0.62% and the “% Found” value under setting [10] stood at 0.59%. Further, the “% Initial” value under setting [2] is 71.4%; the “% Initial” value under setting [3] worked out at 76.2%; the “% Initial” value under setting [4] was 69.8%; the “% Initial” value under setting [5] is 88.1%; the “% Initial” value under setting [8] is recorded as 93.3%; the “% Initial” value under setting [9] was 103.3%. Under setting [10], the “% Initial” value is on record as 98.3%. The Change under setting [6] is on record as 0.38.
